The record followed here is ChEMBL document CHEMBL2429832, “N-substituted 8-aminopentacyclo[5.4.0.0(2,6).0(3,10).0(5,9)]undecanes as σ receptor ligands with potential neuroprotective effects” (Bioorg Med Chem, 2013).

Experiment [1] concerns the target 5-hydroxytryptamine receptor 1D (Homo sapiens) (UniProt P28221). Put plainly: Inhibition of 5-HT1D receptor (unknown origin) at 10 uM by PDSP assay relative to control.
The target of experiment [2] is T1, 5-hydroxytryptamine receptor 1A (Homo sapiens) (UniProt P08908).
T1 sequence (whole entry): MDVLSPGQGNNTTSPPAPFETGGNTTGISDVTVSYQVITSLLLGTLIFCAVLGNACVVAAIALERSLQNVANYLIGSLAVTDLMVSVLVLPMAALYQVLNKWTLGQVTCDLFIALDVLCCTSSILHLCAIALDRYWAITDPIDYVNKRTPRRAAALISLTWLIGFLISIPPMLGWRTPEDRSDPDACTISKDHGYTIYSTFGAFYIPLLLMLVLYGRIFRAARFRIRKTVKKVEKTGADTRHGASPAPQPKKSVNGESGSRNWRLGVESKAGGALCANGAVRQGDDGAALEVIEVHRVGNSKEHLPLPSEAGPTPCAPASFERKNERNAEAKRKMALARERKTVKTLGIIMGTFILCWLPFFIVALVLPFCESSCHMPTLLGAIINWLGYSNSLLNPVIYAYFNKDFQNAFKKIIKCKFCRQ
The experiment in a line: Inhibition of 5-HT1A receptor (unknown origin) at 10 uM by PDSP assay relative to control.

The target in the next experiment is Histamine H3 receptor (Homo sapiens, UniProt Q9Y5N1). Put plainly: Inhibition of histamine H3 receptor (unknown origin) at 10 uM by PDSP assay relative to control.
Histamine H3 receptor, sequence (Q9Y5N1 whole entry): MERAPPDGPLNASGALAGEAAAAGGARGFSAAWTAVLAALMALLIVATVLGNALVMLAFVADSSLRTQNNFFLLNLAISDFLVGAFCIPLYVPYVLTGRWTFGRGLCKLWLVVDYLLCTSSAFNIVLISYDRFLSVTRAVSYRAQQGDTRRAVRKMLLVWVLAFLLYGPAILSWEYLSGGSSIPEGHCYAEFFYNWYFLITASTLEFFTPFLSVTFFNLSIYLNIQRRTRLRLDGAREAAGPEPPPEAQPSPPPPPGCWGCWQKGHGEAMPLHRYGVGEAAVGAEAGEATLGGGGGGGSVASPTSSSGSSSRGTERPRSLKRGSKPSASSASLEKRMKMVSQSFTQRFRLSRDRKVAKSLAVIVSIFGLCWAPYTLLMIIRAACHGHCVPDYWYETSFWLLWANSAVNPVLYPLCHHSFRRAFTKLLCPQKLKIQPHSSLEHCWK
The next experiment deals with Histamine H4 receptor (Homo sapiens, UniProt Q9H3N8). The experiment in a line: Inhibition of histamine H4 receptor (unknown origin) at 10 uM by PDSP assay relative to control.
Experiment [3] concerns the target D(1A) dopamine receptor (Homo sapiens) (UniProt P21728). Put plainly: Inhibition of dopamine D1 receptor (unknown origin) at 10 uM by PDSP assay relative to control.
The target in experiment [4] is Beta-2 adrenergic receptor (Homo sapiens) (UniProt P07550). The experiment in a line: Inhibition of adrenergic beta2 receptor (unknown origin) at 10 uM by PDSP assay relative to control.
Beta-2 adrenergic receptor (Homo sapiens), sequence (P07550 whole entry, looked up): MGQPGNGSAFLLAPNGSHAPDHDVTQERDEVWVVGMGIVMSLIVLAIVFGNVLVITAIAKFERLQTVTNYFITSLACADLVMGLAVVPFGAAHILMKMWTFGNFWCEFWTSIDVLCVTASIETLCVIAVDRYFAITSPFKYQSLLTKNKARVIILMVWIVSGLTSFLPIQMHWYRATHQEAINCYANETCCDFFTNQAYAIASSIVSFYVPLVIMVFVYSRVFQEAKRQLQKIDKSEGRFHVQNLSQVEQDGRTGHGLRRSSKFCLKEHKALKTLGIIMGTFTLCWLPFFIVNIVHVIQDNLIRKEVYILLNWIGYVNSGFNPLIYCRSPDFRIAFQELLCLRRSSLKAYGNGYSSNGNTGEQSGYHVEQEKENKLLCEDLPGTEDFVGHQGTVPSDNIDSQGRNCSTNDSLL
Experiment [5] deals with Beta-1 adrenergic receptor (Homo sapiens) (UniProt P08588). The experiment in a line: Inhibition of adrenergic beta1 receptor (unknown origin) at 10 uM by PDSP assay relative to control.
Beta-1 adrenergic receptor (Homo sapiens), sequence (P08588 whole entry, looked up): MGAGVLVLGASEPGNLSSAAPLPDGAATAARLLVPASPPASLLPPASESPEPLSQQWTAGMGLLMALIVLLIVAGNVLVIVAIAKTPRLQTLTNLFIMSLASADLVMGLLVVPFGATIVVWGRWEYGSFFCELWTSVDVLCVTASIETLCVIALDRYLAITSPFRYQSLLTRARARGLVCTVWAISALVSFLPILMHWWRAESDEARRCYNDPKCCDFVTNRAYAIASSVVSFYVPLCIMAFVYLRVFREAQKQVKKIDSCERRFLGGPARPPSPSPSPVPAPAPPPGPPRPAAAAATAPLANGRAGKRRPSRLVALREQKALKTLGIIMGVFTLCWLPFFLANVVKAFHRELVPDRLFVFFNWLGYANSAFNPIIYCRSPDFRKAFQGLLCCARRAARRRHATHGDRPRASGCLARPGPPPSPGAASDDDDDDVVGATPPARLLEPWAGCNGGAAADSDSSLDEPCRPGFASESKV
In experiment [6] the target is Sodium-dependent noradrenaline transporter (Homo sapiens, UniProt P23975). Put plainly: Displacement of [3H]-nisoxetine from human NET expressed in HEK cell membranes at 10 uM relative to control. The following applies: HEK293. On the technique in general: Loss of bound radioactivity is the signal in a displacement assay; it reports binding, not function.
Sodium-dependent noradrenaline transporter, sequence (P23975 whole entry): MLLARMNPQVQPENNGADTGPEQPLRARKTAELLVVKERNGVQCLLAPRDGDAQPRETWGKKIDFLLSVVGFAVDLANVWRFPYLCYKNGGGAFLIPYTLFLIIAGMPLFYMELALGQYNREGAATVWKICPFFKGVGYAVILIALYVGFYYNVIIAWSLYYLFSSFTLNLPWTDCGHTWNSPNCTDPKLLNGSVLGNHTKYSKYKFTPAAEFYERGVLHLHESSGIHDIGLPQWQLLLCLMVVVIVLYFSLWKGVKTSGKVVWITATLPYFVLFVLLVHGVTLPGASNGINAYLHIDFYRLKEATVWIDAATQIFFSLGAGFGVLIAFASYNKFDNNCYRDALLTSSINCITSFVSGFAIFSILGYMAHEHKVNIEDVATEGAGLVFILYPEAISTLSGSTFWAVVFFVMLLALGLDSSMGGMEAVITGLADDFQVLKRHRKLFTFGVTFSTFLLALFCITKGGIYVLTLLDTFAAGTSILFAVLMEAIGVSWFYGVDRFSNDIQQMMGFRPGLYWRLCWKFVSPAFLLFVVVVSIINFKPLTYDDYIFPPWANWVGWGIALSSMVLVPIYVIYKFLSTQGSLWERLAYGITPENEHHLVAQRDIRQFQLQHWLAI
In the next experiment the test system is PC-12. The experiment in a line: Selectivity ratio of Ki for sigma-1 receptor in rat brain homogenates to Ki for sigma-2 receptor in rat PC12 cells. It is filed as cell-based.
Experiment [7] concerns the target Sigma non-opioid intracellular receptor 1 (Rattus norvegicus, UniProt Q9R0C9). Put plainly: Displacement of [3H](+)-pentazocine from sigma-1 receptor in rat brain homogenates. It counts as tissue-based.
A further experiment concerns the target Mu-type opioid receptor (Homo sapiens, UniProt P35372). The experiment in a line: Inhibition of mu opioid receptor (unknown origin) at 10 uM by PDSP assay relative to control.
The target in experiment [8] is 5-hydroxytryptamine receptor 7 (Homo sapiens, UniProt P34969). The experiment in a line: Inhibition of 5-HT7 receptor (unknown origin) at 10 uM by PDSP assay relative to control.
5-hydroxytryptamine receptor 7, sequence (P34969 whole entry): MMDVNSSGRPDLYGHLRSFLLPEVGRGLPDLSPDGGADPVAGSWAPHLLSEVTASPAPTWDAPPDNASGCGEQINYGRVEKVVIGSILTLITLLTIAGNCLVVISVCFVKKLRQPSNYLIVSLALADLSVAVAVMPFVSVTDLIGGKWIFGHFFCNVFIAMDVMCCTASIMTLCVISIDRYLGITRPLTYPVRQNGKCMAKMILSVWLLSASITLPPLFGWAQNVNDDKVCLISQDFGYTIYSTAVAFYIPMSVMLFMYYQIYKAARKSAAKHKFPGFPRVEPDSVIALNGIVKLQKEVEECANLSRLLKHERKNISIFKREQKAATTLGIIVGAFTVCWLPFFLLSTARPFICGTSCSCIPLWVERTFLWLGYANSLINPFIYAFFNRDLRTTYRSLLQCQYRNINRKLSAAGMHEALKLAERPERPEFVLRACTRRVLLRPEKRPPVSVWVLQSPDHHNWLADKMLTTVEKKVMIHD
In experiment [9] the target is T2, 5-hydroxytryptamine receptor 3A (Homo sapiens) (UniProt P46098).
T2 sequence (whole entry): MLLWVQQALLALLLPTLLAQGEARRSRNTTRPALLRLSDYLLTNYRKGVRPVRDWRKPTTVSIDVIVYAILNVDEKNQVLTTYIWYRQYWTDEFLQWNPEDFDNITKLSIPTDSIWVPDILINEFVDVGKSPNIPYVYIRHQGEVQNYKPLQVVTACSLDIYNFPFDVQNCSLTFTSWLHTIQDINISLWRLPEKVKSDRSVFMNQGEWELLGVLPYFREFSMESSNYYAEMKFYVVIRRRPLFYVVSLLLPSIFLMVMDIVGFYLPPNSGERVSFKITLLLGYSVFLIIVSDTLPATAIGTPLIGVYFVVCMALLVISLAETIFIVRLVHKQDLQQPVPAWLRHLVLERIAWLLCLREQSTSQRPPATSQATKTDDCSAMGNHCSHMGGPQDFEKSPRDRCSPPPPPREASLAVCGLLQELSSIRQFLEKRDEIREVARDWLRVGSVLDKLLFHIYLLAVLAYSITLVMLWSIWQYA
Put plainly: Inhibition of 5-HT3 receptor (unknown origin) at 10 uM by PDSP assay relative to control.

For experiment [10], the target named is 5-hydroxytryptamine receptor 2B (Homo sapiens, UniProt P41595). The experiment in a line: Inhibition of 5-HT2B receptor (unknown origin) at 10 uM by PDSP assay relative to control.
5-hydroxytryptamine receptor 2B, sequence (P41595 whole entry): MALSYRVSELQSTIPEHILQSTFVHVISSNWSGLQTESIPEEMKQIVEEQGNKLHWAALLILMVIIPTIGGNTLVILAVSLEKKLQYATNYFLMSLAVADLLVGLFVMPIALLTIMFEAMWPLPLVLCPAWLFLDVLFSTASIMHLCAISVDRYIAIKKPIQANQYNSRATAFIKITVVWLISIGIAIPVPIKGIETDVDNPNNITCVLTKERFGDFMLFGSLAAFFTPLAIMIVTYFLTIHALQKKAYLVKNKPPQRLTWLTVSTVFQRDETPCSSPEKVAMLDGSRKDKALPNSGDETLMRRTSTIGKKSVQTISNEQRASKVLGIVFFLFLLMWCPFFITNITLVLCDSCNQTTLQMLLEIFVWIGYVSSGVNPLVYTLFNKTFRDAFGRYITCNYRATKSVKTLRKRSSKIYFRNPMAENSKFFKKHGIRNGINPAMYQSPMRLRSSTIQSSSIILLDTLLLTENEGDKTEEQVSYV
The target of experiment [11] is 5-hydroxytryptamine receptor 1B (Homo sapiens, UniProt P28222). Put plainly: Inhibition of 5-HT1B receptor (unknown origin) at 10 uM by PDSP assay relative to control.
5-hydroxytryptamine receptor 1B, sequence (P28222 whole entry): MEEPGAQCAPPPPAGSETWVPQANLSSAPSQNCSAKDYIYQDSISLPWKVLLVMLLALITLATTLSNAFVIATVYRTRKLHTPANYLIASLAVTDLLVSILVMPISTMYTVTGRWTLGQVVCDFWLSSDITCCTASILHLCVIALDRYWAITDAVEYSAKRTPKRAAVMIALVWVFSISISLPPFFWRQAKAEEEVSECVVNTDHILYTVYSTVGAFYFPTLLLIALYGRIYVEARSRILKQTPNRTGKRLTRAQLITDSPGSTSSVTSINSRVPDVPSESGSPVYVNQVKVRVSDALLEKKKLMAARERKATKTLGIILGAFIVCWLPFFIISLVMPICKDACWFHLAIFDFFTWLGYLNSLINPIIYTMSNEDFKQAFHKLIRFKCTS
Experiment [12] concerns the target T3, D(4) dopamine receptor (Homo sapiens) (UniProt P21917).
T3 sequence (whole entry): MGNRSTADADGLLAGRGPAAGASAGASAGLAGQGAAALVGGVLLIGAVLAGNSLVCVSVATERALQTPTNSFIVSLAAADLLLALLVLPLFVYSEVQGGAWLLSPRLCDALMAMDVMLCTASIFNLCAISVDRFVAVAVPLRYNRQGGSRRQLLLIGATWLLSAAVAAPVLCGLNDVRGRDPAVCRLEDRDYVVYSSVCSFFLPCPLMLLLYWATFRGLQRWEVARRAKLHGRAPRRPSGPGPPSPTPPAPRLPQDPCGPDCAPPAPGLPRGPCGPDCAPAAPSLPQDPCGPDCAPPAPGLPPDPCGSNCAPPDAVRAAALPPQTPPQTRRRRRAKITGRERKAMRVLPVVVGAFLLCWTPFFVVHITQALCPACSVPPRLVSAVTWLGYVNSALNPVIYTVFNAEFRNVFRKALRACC
The experiment in a line: Inhibition of dopamine D4 receptor (unknown origin) at 10 uM by PDSP assay relative to control.

Mu-type opioid receptor, sequence (P35372 whole entry): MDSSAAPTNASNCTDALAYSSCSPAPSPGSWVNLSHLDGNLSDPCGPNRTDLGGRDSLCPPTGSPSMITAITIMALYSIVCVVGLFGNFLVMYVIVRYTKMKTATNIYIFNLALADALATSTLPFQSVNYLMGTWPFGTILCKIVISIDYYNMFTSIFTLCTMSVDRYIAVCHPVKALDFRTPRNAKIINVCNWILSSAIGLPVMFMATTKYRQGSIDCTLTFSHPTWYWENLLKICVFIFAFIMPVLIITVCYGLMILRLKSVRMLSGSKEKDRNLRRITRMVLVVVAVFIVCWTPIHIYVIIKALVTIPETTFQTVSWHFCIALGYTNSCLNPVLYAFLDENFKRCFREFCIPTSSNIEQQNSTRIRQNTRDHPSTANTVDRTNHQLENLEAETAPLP
Sigma non-opioid intracellular receptor 1, sequence (Q9R0C9 whole entry): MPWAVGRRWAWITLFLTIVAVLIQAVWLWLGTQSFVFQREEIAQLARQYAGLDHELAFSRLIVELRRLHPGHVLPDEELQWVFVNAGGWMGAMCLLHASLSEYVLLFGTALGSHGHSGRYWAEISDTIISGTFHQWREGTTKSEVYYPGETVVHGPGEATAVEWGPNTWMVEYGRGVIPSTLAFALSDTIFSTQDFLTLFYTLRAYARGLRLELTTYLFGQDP
D(1A) dopamine receptor (Homo sapiens), sequence (P21728 whole entry): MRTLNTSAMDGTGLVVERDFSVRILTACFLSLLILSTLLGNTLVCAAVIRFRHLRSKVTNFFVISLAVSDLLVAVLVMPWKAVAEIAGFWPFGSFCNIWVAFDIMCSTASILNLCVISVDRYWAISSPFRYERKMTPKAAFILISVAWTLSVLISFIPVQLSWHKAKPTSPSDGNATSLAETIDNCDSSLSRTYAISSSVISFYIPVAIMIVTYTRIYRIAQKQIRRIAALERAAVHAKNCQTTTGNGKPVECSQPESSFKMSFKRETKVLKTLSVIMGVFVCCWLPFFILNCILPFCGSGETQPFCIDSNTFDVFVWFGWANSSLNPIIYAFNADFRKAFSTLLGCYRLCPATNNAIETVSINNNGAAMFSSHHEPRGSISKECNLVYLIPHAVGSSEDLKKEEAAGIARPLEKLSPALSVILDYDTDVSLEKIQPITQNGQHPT
5-hydroxytryptamine receptor 1D (Homo sapiens), sequence (P28221 whole entry): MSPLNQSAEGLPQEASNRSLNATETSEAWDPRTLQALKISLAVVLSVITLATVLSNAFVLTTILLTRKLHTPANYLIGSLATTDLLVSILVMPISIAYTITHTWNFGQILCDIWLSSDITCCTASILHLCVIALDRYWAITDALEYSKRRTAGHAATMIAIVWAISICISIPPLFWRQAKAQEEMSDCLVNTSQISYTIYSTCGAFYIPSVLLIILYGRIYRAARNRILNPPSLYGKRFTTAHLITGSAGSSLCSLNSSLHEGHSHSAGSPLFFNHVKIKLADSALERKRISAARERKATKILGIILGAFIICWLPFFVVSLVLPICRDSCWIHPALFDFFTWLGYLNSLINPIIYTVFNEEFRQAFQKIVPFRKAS

Turning to `c1ccc(CCN[C@H]2C3C4CC5C6C4CC3C6C52)cc1` (some centres not stated), the inhibition (in [1]; in experiment [2]; at Histamine H3 receptor; at Histamine H4 receptor; in experiment [3]; in experiment [4]) was under 50% throughout. The inhibition (in experiment [5]; in experiment [6]; at Mu-type opioid receptor; in [8]; in experiment [9]; in experiment [10]) was under 50% each time. The Ratio Ki with PC-12 was determined as 5.3. Besides, in experiment [7], affinity was put at a Ki of 49 nM.
For `CN(CCc1ccccc1)[C@H]1C2C3CC4C5C3CC2C5C41` (some centres not stated), the inhibition (in experiment [11]; in experiment [1]; in experiment [2]; against Histamine H3 receptor; against Histamine H4 receptor; in experiment [12]) was under 50% in each case. Besides, the inhibition (in experiment [3]; in [4]; in experiment [5]; in experiment [6]; against Mu-type opioid receptor; in experiment [9]) was under 50% in each case. In the experiment on PC-12, the Ratio Ki was found to be 48.3. Besides, in experiment [7], the affinity, expressed as Ki, was 773 nM.
For the compound `CN(Cc1cccc(F)c1)[C@H]1C2C3CC4C2C(=O)C2C4C3C21` (some centres not stated), the inhibition (in [11]; in experiment [1]; at Histamine H3 receptor; on Histamine H4 receptor; in [12]; in [3]) was under 50% each time. Also, the inhibition (in [4]; in experiment [5]; in experiment [6]; against Mu-type opioid receptor; in experiment [8]; in experiment [9]) was under 50% each time. For the same compound, in [10], the inhibition – broadly, the share of the control response that was lost under treatment – was under 50%. Further, the Ratio Ki in the experiment with PC-12 was 1.8. The inhibitory constant (Ki) (usually the equilibrium dissociation constant of an inhibitor or competing ligand from its target) in experiment [7] is 303 nM.
Consider `CN(CCc1ccccn1)[C@H]1C2C3CC4C5C3CC2C5C41` (some centres not stated), for which the inhibition (in [11]; in [1]; in experiment [2]; against Histamine H3 receptor; at Histamine H4 receptor; in experiment [12]) was under 50% each time. For the same compound, the inhibition in experiment [3], in [4], in [5], in experiment [6], in experiment [8] and in experiment [9] was under 50% in each case. Moreover, the inhibition in experiment [10] is under 50%. Also, the Ratio Ki in the experiment on PC-12 was 14. Further, in [7], the affinity corresponds to a Ki of 448 nM.
For the compound `COc1cc(CN[C@H]2C3C4CC5C6C4CC3C6C52)cc(OC)c1OC` (some centres not stated), the inhibition (in experiment [11]; in experiment [1]; in [2]; against Histamine H3 receptor; on Histamine H4 receptor; in [12]) was under 50% each time. In addition, the inhibition (in [3]; in experiment [4]; in experiment [5]; in experiment [6]; on Mu-type opioid receptor; in [8]) was under 50% in each case. In [9], this compound had an inhibition of under 50%. Also, the Ratio Ki in the experiment with PC-12 was found to be 1.6. This compound also had a Ki in experiment [7] of 1010 nM.
`c1ccc(CCN[C@H]2C3C4CC5C6C4CC3C6C52)nc1` (some centres not stated): the inhibition (in experiment [11]; in [1]; in experiment [2]; on Histamine H3 receptor; in experiment [3]; in experiment [4]) was under 50% each time. Further, the inhibition (in experiment [5]; in experiment [6]; on Mu-type opioid receptor; in experiment [8]; in [9]; in experiment [10]) was under 50% throughout. Further, the Ratio Ki in the experiment with PC-12 was found to be 2.5. For the same compound, affinity in experiment [7] was put at a Ki of 21.5 nM.
